Data reported in PubChem BioAssay (NCI).
Where “and” joins values, the source holds several entries; their conditions need not be identical. Equal entries are not always repeated.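 A five-concentration, 48-hour dose response in 96-well plates underlies each endpoint, interpolated linearly between surrounding concentrations. The concentration for 50% growth inhibition is given as GI50. The concentration for full growth arrest is given as TGI.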

How the values were obtained:
Experiment in all cases: NCI anticancer screen, dose series, 48 h
HT29 colon = test system: HT29 colon
OVCAR-8 ovarian = test system: OVCAR-8 ovarian
RPMI-8226 leukemia = test system: RPMI-8226 leukemia
SK-MEL-28 melanoma = test system: SK-MEL-28 melanoma
SN12C renal = test system: SN12C renal
SNB-19 CNS = test system: SNB-19 CNS
UACC-257 melanoma = test system: UACC-257 melanoma
MALME-3M melanoma = test system: MALME-3M melanoma
BT-549 breast = test system: BT-549 breast
PC-3 prostate = test system: PC-3 prostate

Compound: COc1cc(C2c3cc4c(cc3[C@@H](N(C)c3ccc(N(C)C)cc3)C3COC(=O)C23)OCO4)cc(OC)c1O (some centres not stated)
- TGI (HT29 colon): 2.62 µM
- TGI (OVCAR-8 ovarian): > 59.8 µM
- TGI (RPMI-8226 leukemia): > 100 µM
- TGI (SK-MEL-28 melanoma): 27.3 µM
- TGI (SN12C renal): 18.1 µM
- TGI (SNB-19 CNS): 42.6 µM
- TGI (UACC-257 melanoma): 18 µM

Compound: O=C(c1ccco1)N(C(=S)N1CCN(c2ccccn2)CC1)c1ccccc1
- TGI (HT29 colon): > 100 µM
- TGI (MALME-3M melanoma): > 100 µM
- TGI (OVCAR-8 ovarian): > 100 µM
- TGI (RPMI-8226 leukemia): > 100 µM
- TGI (SK-MEL-28 melanoma): > 100 µM
- TGI (SN12C renal): > 100 µM
- TGI (SNB-19 CNS): > 100 µM
- TGI (UACC-257 melanoma): > 100 µM

Compound: C=CCn1c(=N)/c(=C(\N)O)s/c1=C1/SC(=S)N(c2ccc(C)cc2)C1=O
- TGI (HT29 colon): > 100 µM
- TGI (MALME-3M melanoma): > 100 µM
- TGI (OVCAR-8 ovarian): > 100 µM
- TGI (RPMI-8226 leukemia): > 100 µM
- TGI (SK-MEL-28 melanoma): > 100 µM
- TGI (SNB-19 CNS): > 100 µM
- TGI (UACC-257 melanoma): > 100 µM

Compound: C/C(O[Si](C(C)C)(C(C)C)C(C)C)=C(\C)C(=O)N(C)c1ccccc1Cl
- TGI (BT-549 breast): > 100 µM
- TGI (HT29 colon): > 100 µM
- TGI (MALME-3M melanoma): > 100 µM
- TGI (OVCAR-8 ovarian): > 100 µM
- TGI (RPMI-8226 leukemia): > 100 µM
- TGI (SK-MEL-28 melanoma): > 100 µM
- TGI (SN12C renal): > 100 µM
- TGI (SNB-19 CNS): > 100 µM
- TGI (UACC-257 melanoma): > 100 µM

Compound: O=[N+]([O-])C(C(Cl)=C(Cl)Cl)=C(n1cncn1)n1cncn1
- TGI (BT-549 breast): 36 µM
- TGI (HT29 colon): 39.4 µM
- TGI (MALME-3M melanoma): 31.2 µM
- TGI (OVCAR-8 ovarian): 44.2 µM
- TGI (PC-3 prostate): > 100 µM
- TGI (RPMI-8226 leukemia): 51.5 µM
- TGI (SK-MEL-28 melanoma): > 95.9 µM
- TGI (SN12C renal): 26.9 µM
- TGI (SNB-19 CNS): > 100 µM
- TGI (UACC-257 melanoma): > 65.7 µM

Compound: O=C1/C(=C/c2ccccc2)CCCc2ccccc21
- TGI (BT-549 breast): 36 µM
- TGI (HT29 colon): 36 µM
- TGI (MALME-3M melanoma): 42 µM
- TGI (OVCAR-8 ovarian): 45.5 µM
- TGI (PC-3 prostate): 35.1 µM
- TGI (RPMI-8226 leukemia): > 100 µM
- TGI (SK-MEL-28 melanoma): 32.6 µM
- TGI (SN12C renal): 33.8 µM
- TGI (SNB-19 CNS): 29.3 µM
- TGI (UACC-257 melanoma): 33.3 µM

Compound: O=P1(Cc2ccccc2)c2ccccc2-c2ccccc21
- TGI (BT-549 breast): 21.3 µM
- TGI (HT29 colon): 27.1 µM
- TGI (MALME-3M melanoma): 12.7 µM
- TGI (OVCAR-8 ovarian): 36.7 µM
- TGI (PC-3 prostate): > 100 µM
- TGI (RPMI-8226 leukemia): 4.61 µM
- TGI (SK-MEL-28 melanoma): 24.6 µM
- TGI (SN12C renal): > 78.8 µM
- TGI (SNB-19 CNS): > 37.8 µM
- TGI (UACC-257 melanoma): 16 µM

Compound: C=C(C)C(=O)OC1C[C@H](COC(C)=O)C2CC=C(CO)C2C2OC(=O)C(=C)[C@H]12 (some centres not stated)
- TGI (BT-549 breast): > 100 µM
- TGI (HT29 colon): > 100 µM
- TGI (MALME-3M melanoma): 44.3 µM
- TGI (OVCAR-8 ovarian): > 100 µM
- TGI (PC-3 prostate): > 100 µM
- TGI (RPMI-8226 leukemia): > 100 µM
- TGI (SK-MEL-28 melanoma): > 100 µM
- TGI (SNB-19 CNS): > 100 µM
- TGI (UACC-257 melanoma): > 100 µM

Compound: C[n+]1ccccc1/C1=c2\cc/c([nH]2)=C(\c2cccc[n+]2C)C2=N/C(=C(/c3cccc[n+]3C)C3C=CC(N3)/C(c3cccc[n+]3C)=C3/C=CC1=N3)C=C2
- TGI (BT-549 breast): > 100 µM
- TGI (HT29 colon): > 100 µM
- TGI (MALME-3M melanoma): > 100 µM
- TGI (OVCAR-8 ovarian): > 100 µM
- TGI (PC-3 prostate): > 100 µM
- TGI (RPMI-8226 leukemia): > 100 µM
- TGI (SK-MEL-28 melanoma): > 100 µM
- TGI (SN12C renal): > 100 µM
- TGI (SNB-19 CNS): > 100 µM
- TGI (UACC-257 melanoma): > 100 µM

Compound: COCOc1cc(OC)ccc1C/C(=N/O)C(=O)OC
- TGI (BT-549 breast): > 100 µM
- TGI (HT29 colon): > 100 µM
- TGI (MALME-3M melanoma): > 100 µM
- TGI (OVCAR-8 ovarian): > 100 µM
- TGI (PC-3 prostate): > 100 µM
- TGI (SK-MEL-28 melanoma): > 100 µM
- TGI (SN12C renal): > 100 µM
- TGI (SNB-19 CNS): > 100 µM
- TGI (UACC-257 melanoma): > 100 µM

Compound: O=C(NC1(C(=O)O)CCCC1)c1ccccc1
- TGI (BT-549 breast): > 100 µM
- TGI (HT29 colon): > 100 µM
- TGI (OVCAR-8 ovarian): > 100 µM
- TGI (PC-3 prostate): > 100 µM
- TGI (RPMI-8226 leukemia): > 100 µM
- TGI (SK-MEL-28 melanoma): > 100 µM
- TGI (SN12C renal): > 100 µM
- TGI (SNB-19 CNS): > 100 µM
- TGI (UACC-257 melanoma): > 100 µM

Compound: COC(=O)CC(C(C(C)=O)C(=O)OCc1ccccc1)N1C(=O)OC(c2ccccc2)C1c1ccccc1 (configuration not stated)
- TGI (HT29 colon): > 100 µM
- TGI (MALME-3M melanoma): > 100 µM
- TGI (OVCAR-8 ovarian): > 100 µM
- TGI (RPMI-8226 leukemia): > 100 µM
- TGI (SK-MEL-28 melanoma): > 100 µM
- TGI (SN12C renal): > 100 µM
- GI50 (SNB-19 CNS): 10.5 µM and > 100 µM
- TGI (SNB-19 CNS): 91.7 µM and > 100 µM
- GI50 (UACC-257 melanoma): 23.6 µM and 55.3 µM
- TGI (UACC-257 melanoma): > 100 µM

Compound: O=C1C(Cl)=C(NCCF)C(=O)c2ncccc21
- TGI (BT-549 breast): 2.99 µM
- TGI (HT29 colon): 7.29 µM
- TGI (MALME-3M melanoma): 2.98 µM
- TGI (OVCAR-8 ovarian): 4.55 µM
- TGI (PC-3 prostate): 3.09 µM
- TGI (RPMI-8226 leukemia): > 10 µM
- TGI (SK-MEL-28 melanoma): 3.41 µM
- TGI (SN12C renal): 3.35 µM
- TGI (SNB-19 CNS): 2.99 µM
- TGI (UACC-257 melanoma): 3.03 µM

Compound: CN(C)c1ccc(/C=C(\NC(=O)c2ccccc2)C(=O)NC(Cc2c[nH]c3ccccc23)C(=O)O)cc1 (configuration not stated)
- TGI (BT-549 breast): > 100 µM
- TGI (HT29 colon): > 100 µM
- TGI (MALME-3M melanoma): > 100 µM
- TGI (OVCAR-8 ovarian): > 100 µM
- TGI (PC-3 prostate): > 100 µM
- TGI (RPMI-8226 leukemia): > 100 µM
- TGI (SK-MEL-28 melanoma): > 100 µM
- TGI (SN12C renal): > 100 µM
- TGI (SNB-19 CNS): > 100 µM
- TGI (UACC-257 melanoma): > 100 µM

Compound: C/C(O)=C(\C=NC(=S)c1ccncc1)C(=O)Nc1ccccc1C
- TGI (BT-549 breast): > 100 µM
- TGI (HT29 colon): > 100 µM
- TGI (OVCAR-8 ovarian): > 100 µM
- TGI (SK-MEL-28 melanoma): > 100 µM
- TGI (SN12C renal): > 100 µM
- TGI (SNB-19 CNS): > 100 µM
- TGI (UACC-257 melanoma): > 100 µM

Compound: COC(=O)C1(O)C(c2ccccc2)NC2(C)CCCC21 (configuration not stated)
- TGI (BT-549 breast): > 100 µM
- TGI (MALME-3M melanoma): > 100 µM
- TGI (OVCAR-8 ovarian): > 100 µM
- TGI (PC-3 prostate): > 100 µM
- TGI (SK-MEL-28 melanoma): > 100 µM
- TGI (SN12C renal): > 100 µM
- TGI (SNB-19 CNS): > 100 µM
- TGI (UACC-257 melanoma): > 100 µM

Compound: COc1ccccc1C1C(C#N)=C(N)Oc2cc(O)ccc21 (configuration not stated)
- GI50 (BT-549 breast): 24 µM
- TGI (BT-549 breast): 80.4 µM
- GI50 (HT29 colon): 16 µM
- TGI (HT29 colon): 45.1 µM
- GI50 (MALME-3M melanoma): 21.6 µM
- TGI (MALME-3M melanoma): 88.6 µM
- GI50 (OVCAR-8 ovarian): 35.2 µM
- TGI (OVCAR-8 ovarian): > 100 µM
- GI50 (RPMI-8226 leukemia): 5.99 µM
- TGI (RPMI-8226 leukemia): 19.8 µM
- GI50 (SK-MEL-28 melanoma): 25 µM
- TGI (SK-MEL-28 melanoma): 86.1 µM
- GI50 (SN12C renal): 11.6 µM
- TGI (SN12C renal): 31.1 µM
- GI50 (SNB-19 CNS): 21.3 µM
- TGI (SNB-19 CNS): 99.8 µM
- GI50 (UACC-257 melanoma): 27.7 µM
- TGI (UACC-257 melanoma): 94.6 µM

Compound: Cc1cc2nnc(C(N)=O)c(N)c2cc1C
- TGI (BT-549 breast): > 100 µM
- TGI (HT29 colon): > 100 µM
- TGI (MALME-3M melanoma): > 100 µM
- TGI (OVCAR-8 ovarian): > 100 µM
- TGI (PC-3 prostate): > 100 µM
- TGI (RPMI-8226 leukemia): > 100 µM
- TGI (SN12C renal): > 100 µM
- TGI (SNB-19 CNS): > 100 µM
- TGI (UACC-257 melanoma): > 100 µM

Compound: O=C(O)c1ccc(Nc2nc3nn(Cc4ccccc4)cc3c(=O)s2)cc1
- TGI (MALME-3M melanoma): > 100 µM
- TGI (OVCAR-8 ovarian): > 100 µM
- TGI (RPMI-8226 leukemia): > 100 µM
- TGI (SK-MEL-28 melanoma): > 100 µM
- TGI (SN12C renal): > 100 µM
- TGI (SNB-19 CNS): > 100 µM
- TGI (UACC-257 melanoma): > 100 µM

Compound: CC(=O)c1c(O)n(-c2ccc(C)cc2)c(=O)c2c(N)n[nH]c12
- TGI (BT-549 breast): > 100 µM
- TGI (HT29 colon): > 100 µM
- TGI (MALME-3M melanoma): > 100 µM
- TGI (OVCAR-8 ovarian): > 100 µM
- TGI (PC-3 prostate): > 100 µM
- TGI (RPMI-8226 leukemia): > 100 µM
- TGI (SK-MEL-28 melanoma): > 100 µM
- TGI (SN12C renal): > 100 µM
- TGI (SNB-19 CNS): > 100 µM
- TGI (UACC-257 melanoma): > 100 µM

Compound: CN(C)N=Nc1ccc2[nH]c(=O)[nH]c2c1
- TGI (BT-549 breast): > 100 µM
- TGI (HT29 colon): > 100 µM
- TGI (MALME-3M melanoma): > 100 µM
- TGI (OVCAR-8 ovarian): > 100 µM
- TGI (PC-3 prostate): > 100 µM
- TGI (RPMI-8226 leukemia): > 100 µM
- TGI (SK-MEL-28 melanoma): > 100 µM
- TGI (SN12C renal): > 100 µM
- TGI (SNB-19 CNS): > 100 µM
- TGI (UACC-257 melanoma): > 100 µM
